Some test systems named below: Bacillus subtilis; Escherichia coli; Salmonella typhimurium; Staphylococcus aureus; Bacillus cereus.
Assay in all cases: ≥ marks a high value that may be exact or a test limit, other limits are often not marked, values filed in µg/mL are converted to µM
For assay [1], the system named is Escherichia coli ATCC 25922.
Assay [2] relates to Staphylococcus aureus NCTC 8325.
Assay [3] concerns Staphylococcus aureus NCTC 10788.
In assay [4] the test system is Pseudomonas aeruginosa ATCC 9027.
In assay [5] the test system is Staphylococcus aureus ATCC 6538.
The subject of assay [6] is Escherichia coli DH5alpha.
Assay [7] relates to Bacillus subtilis ATCC 6051.
The subject of assay [8] is Klebsiella pneumoniae ATCC 13883.
In assay [9] the test system is Pseudomonas aeruginosa PAO1.
Assay [10] concerns Staphylococcus aureus USA 300.

In brackets after ≈: the same amount, converted by molar mass.

`CC[C@H](C)[C@H](NC(=O)CN)C(=O)N[C@@H](Cc1ccccc1)C(=O)N[C@H](C(=O)N[C@@H](CCCCN)C(=O)N[C@H](C(=O)N[C@@H](CC(N)=O)C(=O)N[C@@H](CCCCN)C(=O)N[C@@H](CCCCN)C(=O)N[C@@H](CCCCN)C(=O)N[C@@H](C)C(=O)N[C@@H](CCCCN)C(=O)N[C@H](C(=O)NCC(=O)N[C@H](C(=O)N[C@@H](Cc1ccccc1)C(=O)N[C@@H](CC(N)=O)C(=O)N[C@H](C(=O)N[C@H](C(=O)N[C@@H](CCCCN)C(=O)N[C@H](C(=O)N[C@H](C(=O)NCC(=O)N[C@@H](CCCCN)C(=O)N[C@@H](CCC(=O)O)C(=O)N[C@@H](C)C(=O)NCC(=O)N[C@@H](CCSC)C(=O)N[C@@H](CC(=O)O)C(=O)N[C@H](C(=O)N[C@H](C(=O)N[C@@H](CCCN=C(N)N)C(=O)N[C@@H](C)C(=O)NCC(=O)N[C@H](C(=O)N[C@@H](CC(=O)O)C(=O)N[C@H](C(=O)N[C@H](C(=O)N[C@@H](CO)C(=O)N[C@H]1CSSC[C@@H](C(=O)O)NC(=O)[C@H](CCC(=O)O)NC(=O)CNC(=O)[C@H](CCCCN)NC(=O)[C@H]([C@@H](C)CC)NC(=O)[C@H](CCCCN)NC1=O)[C@@H](C)CC)[C@@H](C)O)[C@@H](C)CC)[C@@H](C)CC)C(C)C)[C@@H](C)CC)[C@@H](C)O)[C@@H](C)CC)[C@@H](C)CC)C(C)C)[C@@H](C)O)[C@@H](C)CC)[C@@H](C)O` [GIFTKINKKKAKTGVFNIIKTIGKEAGMDVIRAGIDTISCKIKGEC]: the minimal inhibitory concentration (MIC) in [1] came out at 1 µM (≈ 4.94 µg/mL); in [2], 15 µM (≈ 74.1 µg/mL).

Consider `CC(C)C[C@H](NC(=O)[C@H](CC(C)C)NC(=O)CNC(=O)CNC(=O)[C@H](CC(C)C)NC(=O)[C@@H](NC(=O)[C@H](CC(N)=O)NC(=O)[C@H](CO)NC(=O)[C@@H](NC(=O)[C@H](CC(C)C)NC(=O)CNC(=O)[C@H](CC(C)C)NC(=O)[C@@H](NC(=O)[C@@H]1CCCN1C(=O)CNC(=O)[C@H](CC(C)C)NC(=O)[C@@H](N)CC(C)C)C(C)C)C(C)C)C(C)C)C(N)=O` [LLGPVLGLVSNVLGGLL], for which the MIC in assay [3] was at least 157 µM.

With `CC[C@H](C)[C@H](NC(=O)[C@H](CCCN=C(N)N)NC(=O)[C@@H](NC(=O)[C@@H](NC(=O)[C@@H](NC(=O)CN)C(C)C)C(C)C)C(C)C)C(=O)NCC(=O)N[C@@H](CCCN=C(N)N)C(=O)N[C@H](C(=O)N[C@H](C(=O)N[C@H](C(=O)N[C@@H](CCCN=C(N)N)C(=O)NCC(=O)N[C@H](C(=O)N[C@@H](CCCN=C(N)N)C(=O)N[C@@H](CCCN=C(N)N)C(N)=O)C(C)C)C(C)C)C(C)C)C(C)C` [GVVVRIGRVVVRGVRR], the MIC against Bacillus subtilis is 8 µM (≈ 14.2 µg/mL); with Escherichia coli it was 8 µM (≈ 14.2 µg/mL); with Salmonella typhimurium it was 4 µM (≈ 7.1 µg/mL); against Staphylococcus aureus, 8 µM (≈ 14.2 µg/mL).

As to `CC[C@H](C)[C@H](NC(=O)[C@@H](NC(=O)[C@@H]1CCCN1C(=O)[C@H](CC(C)C)NC(=O)[C@@H](N)Cc1ccccc1)[C@@H](C)CC)C(=O)N[C@@H](C)C(=O)N[C@@H](CCCCN)C(=O)N[C@H](C(=O)N[C@@H](CC(C)C)C(=O)N[C@@H](CO)C(=O)NCC(=O)N[C@@H](CC(C)C)C(=O)N[C@@H](CC(C)C)C(N)=O)C(C)C` [FLPIIAKVLSGLL], the MIC in assay [2] is 15 µM (≈ 20.7 µg/mL).

Regarding `CC(C)C[C@H](NC(=O)[C@H](CC(C)C)NC(=O)[C@H](CCCCN)NC(=O)[C@H](CCCCN)NC(=O)[C@H](C)NC(=O)[C@H](CC(C)C)NC(=O)[C@H](CCCCN)NC(=O)[C@H](C)NC(=O)[C@H](CC(C)C)NC(=O)[C@H](C)NC(=O)[C@H](CCCCN)NC(=O)[C@H](C)NC(=O)[C@@H](N)Cc1ccccc1)C(N)=O` [FAKALAKLAKKLL], the MIC in assay [4] and in assay [5] was 3.53 µM (≈ 5 µg/mL) in each case.

Turning to `CC[C@@H](C)[C@H](N=C(O)[C@H](CO)N=C(O)C(CC(C)C)N=C(O)[C@H](CCSC)N=C(O)[C@@H]1CCCN1C(=O)[C@H](CC(C)C)N=C(O)CN=C(O)[C@H](N)Cc1ccccc1)C(O)=N[C@H](CC(C)C)C(=O)N1CCCC1C(O)=N[C@H](CCCCN)C(O)=N[C@H](C)C(O)=N[C@H](CC(C)C)C(O)=N[C@H](CS)C(O)=N[C@H](C(O)=N[C@H](CC(C)C)C(O)=N[C@H](CC(C)C)C(O)=N[C@H](CCCCN)C(O)=N[C@H](CCCNC(=N)N)C(O)=N[C@H](CCCCN)C(O)=N[C@H](CS)C(=O)O)[C@H](C)CC` (some centres undefined) [FGLPMLSILPKALCILLKRKC], the minimum inhibitory concentration (MIC) in assay [1] amounted to 12 µM (≈ 28.3 µg/mL); in [2], 20 µM (≈ 47.2 µg/mL).

Turning to `CC[C@H](C)[C@H](NC(=O)CN)C(=O)NCC(=O)N[C@@H](C)C(=O)N[C@H](C(=O)N[C@@H](CC(C)C)C(=O)N[C@@H](CCCCN)C(=O)N[C@H](C(=O)N[C@@H](CC(C)C)C(=O)N[C@H](C(=O)N[C@H](C(=O)NCC(=O)N[C@@H](C)C(=O)N1CCC[C@H]1C(=O)N[C@@H](C)C(=O)N[C@@H](CC(C)C)C(=O)N[C@H](C(=O)N[C@@H](CO)C(=O)N[C@@H](Cc1c[nH]c2ccccc12)C(=O)N[C@H](C(=O)N[C@@H](CCCCN)C(=O)N[C@@H](CCCN=C(N)N)C(=O)N[C@@H](CCCCN)C(=O)N[C@@H](CCCN=C(N)N)C(=O)N[C@@H](CCC(N)=O)C(=O)N[C@@H](CCC(N)=O)C(N)=O)[C@@H](C)CC)[C@@H](C)CC)[C@@H](C)O)[C@@H](C)O)C(C)C)C(C)C` [GIGAVLKVLTTGAPALISWIKRKRQQ], the MIC against Bacillus subtilis is 2.4 µM (≈ 6.73 µg/mL); in assay [6], 4.5 µM (≈ 12.6 µg/mL); in the assay with Staphylococcus aureus it was 4.3 µM (≈ 12.1 µg/mL).

`CC[C@H](C)[C@H](NC(=O)[C@H](CC(N)=O)NC(=O)[C@H](CC(N)=O)NC(=O)CNC(=O)[C@H](CCC(=O)O)NC(=O)[C@H](CC(N)=O)NC(=O)[C@H](CCC(=O)O)NC(=O)[C@H](CCC(N)=O)NC(=O)[C@H](CCC(=O)O)NC(=O)[C@H](CCC(=O)O)NC(=O)[C@@H](N)CCCCN)C(=O)N[C@@H](Cc1ccccc1)C(=O)N[C@H](C(=O)N[C@@H](CC(N)=O)C(=O)N[C@@H](CCCN=C(N)N)C(=O)N[C@@H](Cc1cnc[nH]1)C(=O)N[C@H](C(=O)N[C@H](C(=O)N[C@@H](CC(=O)O)C(=O)N[C@@H](CCCCN)C(=O)N[C@@H](CC(C)C)C(=O)O)C(C)C)[C@@H](C)CC)C(C)C` [KEEQENEGNNIFVNRHIVDKL] had a minimal inhibitory concentration (MIC) in assay [7] of at least 1000 µM.

Regarding `CC(C)C[C@H](NC(=O)[C@@H](N)Cc1ccccc1)C(=O)NCC(=O)N[C@@H](CCCCN)C(=O)N[C@H](C(=O)N[C@H](C(=O)N[C@@H](CCCCN)C(=O)N[C@@H](CCCCN)C(=O)N[C@@H](C)C(=O)N[C@@H](CO)C(=O)N[C@@H](CCCCN)C(=O)N[C@H](C(=O)N[C@@H](Cc1ccccc1)C(=O)N1CCC[C@H]1C(=O)N[C@@H](C)C(=O)N[C@H](C(=O)N[C@@H](Cc1ccccc1)C(=O)NCC(=O)N[C@@H](CCCCN)C(=O)N[C@H](C(=O)O)C(C)C)C(C)C)C(C)C)C(C)C)C(C)C` [FLGKVVKKASKVFPAVFGKV], the minimal inhibitory concentration (MIC) in the assay with Bacillus cereus is at least 59.5 µM; against Escherichia coli, 59.5 µM (≈ 128 µg/mL); against Staphylococcus aureus, above 59.5 µM.

On to `CC(C)C[C@H](NC(=O)[C@H](CC(C)C)NC(=O)[C@H](CCCCN)NC(=O)CNC(=O)[C@H](CC(C)C)NC(=O)[C@H](C)NC(=O)[C@H](CCCCN)NC(=O)[C@H](CC(C)C)NC(=O)[C@H](C)NC(=O)[C@H](CO)NC(=O)[C@H](CC(C)C)NC(=O)[C@H](CC(C)C)NC(=O)CN)C(N)=O` [GLLSALKALGKLL], for which the MIC in assay [1] is 3.1 µM (≈ 4.02 µg/mL); in assay [8], 3.1 µM (≈ 4.02 µg/mL); in assay [9], above 25 µM; in assay [10], 1.56 µM (≈ 2.02 µg/mL).

With `CC[C@H](C)[C@H](NC(=O)[C@H](CC(C)C)NC(=O)[C@@H]1CCCN1C(=O)[C@H](CC(C)C)NC(=O)[C@@H](NC(=O)[C@@H](N)Cc1ccccc1)[C@@H](C)CC)C(=O)N[C@@H](C)C(=O)N[C@@H](CO)C(=O)N[C@@H](Cc1ccccc1)C(=O)N[C@@H](CC(C)C)C(=O)N[C@@H](CO)C(=O)N[C@@H](CCCCN)C(=O)N[C@@H](Cc1ccccc1)C(=O)N[C@@H](CC(C)C)C(N)=O` [FILPLIASFLSKFL], the MIC in assay [2] amounted to 12 µM (≈ 19.3 µg/mL).

With `CC(C)C[C@H](NC(=O)[C@@H](N)Cc1ccccc1)C(=O)NCC(=O)N[C@@H](CO)C(=O)N[C@H](C(=O)N[C@@H](Cc1ccccc1)C(=O)N[C@@H](CCCCN)C(=O)N[C@@H](CO)C(=O)N[C@@H](C)C(=O)N[C@@H](CO)C(=O)N[C@@H](CCCCN)C(=O)N[C@H](C(=O)N[C@@H](Cc1ccccc1)C(=O)N1CCC[C@H]1C(=O)N[C@@H](C)C(=O)N[C@H](C(=O)N[C@@H](Cc1ccccc1)C(=O)NCC(=O)N[C@@H](CCCCN)C(=O)N[C@H](C(=O)O)C(C)C)C(C)C)C(C)C)C(C)C` [FLGSVFKSASKVFPAVFGKV], the figures for the minimum inhibitory concentration (MIC) in the assay with Bacillus cereus, against Escherichia coli and against Staphylococcus aureus were at least 121 µM, above 121 µM and above 121 µM, respectively.

With `CC(C)C[C@H](NC(=O)[C@H](CC(C)C)NC(=O)[C@H](CCCCN)NC(=O)[C@H](CCCCN)NC(=O)[C@H](C)NC(=O)[C@H](C)NC(=O)[C@H](CC(C)C)NC(=O)[C@H](CCCCN)NC(=O)[C@H](CC(C)C)NC(=O)[C@H](CC(C)C)NC(=O)[C@H](CCCCN)NC(=O)[C@H](C)NC(=O)[C@@H](N)Cc1ccccc1)C(N)=O` [FAKLLKLAAKKLL], the minimal inhibitory concentration (MIC) worked out at 3.43 µM (≈ 5 µg/mL) in assay [4] and 137 µM (≈ 200 µg/mL) in assay [5].

For orientation: MIC means the least concentration at which growth counts as inhibited. High values mean a less susceptible organism, low ones a more susceptible organism.
